From patent US20260365628A1, “SUBSTITUTED 3,4-DIHYDROQUINOLINONE INHIBITORS OF TSHR” (Septerna, Inc., priority 2022, published 2026) come the findings set out here.

The target of this assay is T1, hTSHR (Homo sapiens, UniProt P16473).
T1 construct: expressed in transfected cells
T1 sequence (P16473 21-764): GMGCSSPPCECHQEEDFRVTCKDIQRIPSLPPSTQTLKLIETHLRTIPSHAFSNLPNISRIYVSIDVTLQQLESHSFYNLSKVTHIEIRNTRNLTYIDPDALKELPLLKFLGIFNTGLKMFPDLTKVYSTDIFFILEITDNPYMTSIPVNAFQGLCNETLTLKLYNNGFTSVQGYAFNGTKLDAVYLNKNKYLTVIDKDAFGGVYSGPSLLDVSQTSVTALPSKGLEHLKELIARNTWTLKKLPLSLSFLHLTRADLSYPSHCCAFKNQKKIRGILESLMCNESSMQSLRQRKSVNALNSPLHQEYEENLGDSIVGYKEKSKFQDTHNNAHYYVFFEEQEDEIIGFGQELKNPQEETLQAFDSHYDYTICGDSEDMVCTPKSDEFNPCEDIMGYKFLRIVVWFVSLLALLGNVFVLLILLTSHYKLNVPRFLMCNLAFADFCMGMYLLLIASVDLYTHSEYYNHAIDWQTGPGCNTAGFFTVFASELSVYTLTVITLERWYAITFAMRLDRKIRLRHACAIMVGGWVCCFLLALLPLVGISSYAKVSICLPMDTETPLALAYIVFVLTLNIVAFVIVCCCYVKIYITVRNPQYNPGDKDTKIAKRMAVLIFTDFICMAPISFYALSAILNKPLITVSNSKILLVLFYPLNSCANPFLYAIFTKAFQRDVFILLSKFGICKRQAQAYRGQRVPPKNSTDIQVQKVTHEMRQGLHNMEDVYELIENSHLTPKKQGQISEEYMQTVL
The assay is described as follows: hTSHR TR-FRET cAMP Assay (inhibition of M22-stimulated cAMP production). The assay is classed as cell-based. Conditions: Expi293F Inducible cells stably expressing hTSHR; cAMP HTRF; stimulated with EC80 of anti-TSHR antibody M22; 15 min compound preincubation, 30 min at 37° C.; read-out: Activity (IC50 bins). An outline of the steps:
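Readout was a cAMP HTRF ratio of 655/620 nm after lysis, scaled between the EC80 M22 signal (0% inhibition) and no-agonist vehicle (100%). Frozen induced Expi293F-hTSHR cells saw test compounds (0.5% DMSO) for 15 min at 37 °C before 30 min of M22 stimulation at EC80.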
A general note: In TR-FRET formats the signal depends on donor and acceptor labels being close together.
A word on the IC50: it is the concentration that inhibits the measured activity by half. For `Cc1cccc([C@H](C)n2c(=O)cnc3cc(NC(=O)NC(C)(C)C)ccc32)c1` [Example 132, (S)-1-(tert-butyl)-3-(2-oxo-1-(1-(m-tolyl)ethyl)-1,2-dihydroquinoxalin-6-yl)urea], the IC50 lay in the range of 100 to 1000 nM.
In the case of `C[C@@H](c1ccc(Cl)c(Cl)c1)n1c(=O)cnc2cc(NC(=O)NC(C)(C)C)ccc21` [Example 133, (S)-1-(tert-butyl)-3-(1-(1-(3,4-dichlorophenyl)ethyl)-2-oxo-1,2-dihydroquinoxalin-6-yl)urea], the 50% inhibitory concentration (IC50) was in the range of 100 to 1000 nM.
Turning to `C[C@@H](c1cccc(C2CC2)c1)n1c(=O)cnc2cc(NC(=O)NC(C)(C)C)ccc21` [Example 134, (S)-1-(tert-butyl)-3-(1-(1-(3-cyclopropylphenyl)eth-yl)-2-oxo-1,2-dihydroquinoxalin-6-yl)urea], the IC50 lay in the range of 100 to 1000 nM.
Next, `C[C@@H](c1cccc(C2CCC2)c1)n1c(=O)cnc2cc(NC(=O)NC(C)(C)C)ccc21` [Example 135, (S)-1-(tert-butyl)-3-(1-(1-(3-cyclo-butylphenyl)ethyl)-2-oxo-1,2-dihydroquinoxalin-6-yl)urea]: 100 to 1000 nM; `CC(C)c1cccc([C@H](C)n2c(=O)cnc3cc(NC(=O)NC(C)(C)C)ccc32)c1` [Example 136, (S)-1-(tert-butyl)-3-(1-(1-(3-iso-propylphenyl)ethyl)-2-oxo-1,2-dihydroquinoxalin-6-yl)urea]: 100 to 1000 nM.
For the compound `CC(C)Oc1cccc([C@H](C)n2c(=O)cnc3cc(NC(=O)NC(C)(C)C)ccc32)c1` [Example 137, (S)-1-(tert-butyl)-3-(1-(1-(3-isopropoxyphenyl)eth-yl)-2-oxo-1,2-dihydroquinoxalin-6-yl)urea], the IC50 lay within 100 to 1000 nM.
Regarding `C[C@@H](c1cccc(C(C)(C)C)c1)n1c(=O)cnc2cc(NC(=O)NC(C)(C)C)ccc21` [Example 138, (S)-1-(tert-butyl)-3-(1-(1-(3-(tert-butyl)phenyl)ethyl)-2-oxo-1,2-dihydroquinoxalin-6-yl)urea], the IC50 lay in the range of 100 to 1000 nM.
Consider `C[C@@H](c1cc(Cl)ccc1F)n1c(=O)cnc2cc(NC(=O)NC(C)(C)C)ccc21` [Example 139, (S)-1-(tert-butyl)-3-(1-(1-(5-chloro-2-fluorophenyl)ethyl)-2-oxo-1,2-dihydroquinoxalin-6-yl)urea], for which the IC50 is 100 to 1000 nM.
For `C[C@@H](c1c(F)cccc1F)n1c(=O)cnc2cc(NC(=O)NC(C)(C)C)ccc21` [Example 140, (S)-1-(tert-butyl)-3-(1-(1-(2,6-difluorophenyl)ethyl)-2-oxo-1,2-dihydroquinoxalin-6-yl)urea], the IC50 was 100 to 1000 nM.
For the compound `Cc1ccc(Cl)cc1[C@H](C)n1c(=O)cnc2cc(NC(=O)NC(C)(C)C)ccc21` [Example 141, (S)-1-(tert-butyl)-3-(1-(1-(5-chloro-2-methylphenyl)ethyl)-2-oxo-1,2-dihydroquinoxalin-6-yl)urea], the concentration for half-maximal inhibition (IC50) is 100 to 1000 nM.
For `C[C@@H](c1cccc(Cl)c1Cl)n1c(=O)cnc2cc(NC(=O)NC(C)(C)C)ccc21` [Example 142, (S)-1-(tert-butyl)-3-(1-(1-(2,3-dichlorophenyl)ethyl)-2-oxo-1,2-dihydroquinoxalin-6-yl)urea] the value was 100 to 1000 nM.
Turning to `C[C@@H](c1cccc(C2CC2)n1)n1c(=O)cnc2cc(NC(=O)NC(C)(C)C)ccc21` [Example 143, (S)-1-(tert-butyl)-3-(1-(1-(6-cyclopropylpyridin-2-yl)ethyl)-2-oxo-1,2-dihydroquinoxalin-6-yl)urea], the IC50 lay within 100 to 1000 nM.
Next, `COc1cccc([C@H](C)n2c(=O)cnc3cc(NC(=O)NC(C)(C)C)ccc32)n1` [Example 144, (S)-1-(tert-butyl)-3-(1-(1-(6-methoxypyridin-2-yl)ethyl)-2-oxo-1,2-dihydroquinoxalin-6-yl)urea]: 100 to 1000 nM.
On to `C[C@@H](c1cccc(N(C)C)n1)n1c(=O)cnc2cc(NC(=O)NC(C)(C)C)ccc21` [Example 145, (S)-1-(tert-butyl)-3-(1-(1-(6-(dimethyl-amino)pyridin-2-yl)ethyl)-2-oxo-1,2-dihydroquinoxalin-6-yl)urea], for which the IC50 lay in the range of 100 to 1000 nM.
For `CC(O)c1cccc([C@H](C)n2c(=O)cnc3cc(NC(=O)NC(C)(C)C)ccc32)c1` (stereo partly drawn) [Example 146, 1-(tert-butyl)-3-(1-((1S)-1-(3-(1-hydroxy-ethyl)phenyl)eth-yl)-2-oxo-1,2-dihydroquinoxalin-6-yl)urea] the value was over 1000 nM; for `C[C@@H](c1cc(F)ccc1Cl)n1c(=O)cnc2cc(NC(=O)NC(C)(C)C)ccc21` [Example 147, (S)-1-(tert-butyl)-3-(1-(1-(2-chloro-5-fluorophenyl)ethyl)-2-oxo-1,2-dihydroquinoxalin-6-yl)urea], 100 to 1000 nM.
As to `C[C@@H](c1cc(F)ccc1F)n1c(=O)cnc2cc(NC(=O)NC(C)(C)C)ccc21` [Example 148, (S)-1-(tert-butyl)-3-(1-(1-(2,5-difluorophenyl)ethyl)-2-oxo-1,2-dihydroquinoxalin-6-yl)urea], the IC50 is 100 to 1000 nM.
Next, `C[C@@H](c1cc(Cl)c(F)cc1F)n1c(=O)cnc2cc(NC(=O)NC(C)(C)C)ccc21` [Example 149, (S)-1-(tert-butyl)-3-(1-(1-(5-chloro-2,4-difluorophenyl)ethyl)-2-oxo-1,2-dihydroquinoxalin-6-yl)urea]: 100 to 1000 nM.
For `C[C@@H](c1cccc(CC(F)(F)F)n1)n1c(=O)cnc2cc(NC(=O)NC(C)(C)C)ccc21` [Example 150, (S)-1-(tert-butyl)-3-(2-oxo-1-(1-(6-(2,2,2-trifluoroethyl)pyridin-2-yl)ethyl)-1,2-dihydroquinoxalin-6-yl)urea] the value was 100 to 1000 nM.
`C[C@@H](c1cc(OC(F)(F)F)c(F)cc1F)n1c(=O)cnc2cc(NC(=O)NC(C)(C)C)ccc21` [Example 151, (S)-1-(tert-butyl)-3-(1-(1-(2,4-difluoro-5-(trifluoromethoxy)phe-nyl)ethyl)-2-oxo-1,2-dihydroquinoxalin-6-yl)urea]: the IC50 was in the range of 100 to 1000 nM.
Consider `C[C@@H](c1ccc2c(c1)OCCC2)n1c(=O)cnc2cc(NC(=O)NC(C)(C)C)ccc21` [Example 152, (S)-1-(tert-butyl)-3-(1-(1-(chroman-7-yl)ethyl)-2-oxo-1,2-dihydroquinoxalin-6-yl)urea], for which the IC50 is over 1000 nM.
For `C[C@@H](c1cccc([C@@H](O)C(F)(F)F)n1)n1c(=O)cnc2cc(NC(=O)NC(C)(C)C)ccc21` [Example 153] the value was 100 to 1000 nM.
For `C[C@@H](c1cccc([C@@H](O)C(F)(F)F)c1)n1c(=O)cnc2cc(NC(=O)NC(C)(C)C)ccc21` [Example 155, 1-(tert-butyl)-3-(2-oxo-1-((S)-1-(3-((S)-2,2,2-trifluoro-1-hydroxyethyl)phe-nyl)ethyl)-1,2-dihydroquinoxalin-6-yl)urea] the value was 100 to 1000 nM; for `C[C@@H](c1cccc([C@H](O)C(F)(F)F)c1)n1c(=O)cnc2cc(NC(=O)NC(C)(C)C)ccc21` [Example 156, 1-(tert-butyl)-3-(2-oxo-1-((S)-1-(3-((R)-2,2,2-trifluoro-1-hydroxyethyl)phe-nyl)ethyl)-1,2-dihydroquinoxalin-6-yl)urea], 100 to 1000 nM; for `Cc1cccc(CN2C(=O)[C@@H](C)Oc3cc(NC(=O)NC(C)(C)C)ccc32)c1` [Example 157, 3-tert-butyl-1-[(2R)-2-methyl-4-[(3-methylphenyl)methyl]-3-oxo-2H-1,4-benzoxazin-7-yl]urea], under 100 nM.
Regarding `C[C@H]1Oc2cc(NC(=O)NC(C)(C)C)ccc2N(Cc2cccc(C(F)F)c2)C1=O` [Example 158, (R)-1-(tert-butyl)-3-(4-(3-(difluoro-methyl)benzyl)-2-methyl-3-oxo-3,4-dihydro-2H-benzo [b][1,4]oxazin-7-yl)urea], the IC50 is under 100 nM.
With `C[C@H]1Oc2cc(NC(=O)NC(C)(C)C)ccc2N(Cc2cccc(OC(F)(F)F)c2)C1=O` [Example 159, (R)-1-(tert-butyl)-3-(2-methyl-3-oxo-4-(3-(trifluoro-methoxy)benzyl)-3,4-dihydro-2H-benzo [b][1,4]oxazin-7-yl)urea], the concentration for half-maximal inhibition (IC50) is under 100 nM.
Next, `C[C@H]1Oc2cc(NC(=O)NC(C)(C)C)ccc2N(Cc2cccc(OC(F)F)c2)C1=O` [Example 160, (R)-1-(tert-butyl)-3-(4-(3-(difluoro-methoxy)benzyl)-2-methyl-3-oxo-3,4-dihydro-2H-benzo [b][1,4]oxazin-7-yl)urea]: under 100 nM; `C[C@H]1Oc2cc(NC(=O)NC(C)(C)C)ccc2N(Cc2cccc(C(F)(F)F)n2)C1=O` [Example 161, (R)-1-(tert-butyl)-3-(2-methyl-3-oxo-4-((6-(trifluoro-methyl)pyridin-2-yl)methyl)-3,4-dihydro-2H-benzo [b][1,4]oxazin-7-yl)urea]: under 100 nM.
Consider `C[C@H]1Oc2cc(NC(=O)NC(C)(C)C)ccc2N(Cc2cc(C(F)(F)F)ccn2)C1=O` [Example 162, (R)-1-(tert-butyl)-3-(2-methyl-3-oxo-4-((4-(trifluoro-methyl)pyridin-2-yl)methyl)-3,4-dihydro-2H-benzo [b][1,4]oxazin-7-yl)urea], for which the IC50 was 100 to 1000 nM.
`C[C@H]1Oc2cc(NC(=O)NC(C)(C)C)ccc2N(Cc2ccnc(C(F)(F)F)c2)C1=O` [Example 163, (R)-1-(tert-butyl)-3-(2-methyl-3-oxo-4-((2-(trifluoro-methyl)pyridin-4-yl)methyl)-3,4-dihydro-2H-benzo [b][1,4]oxazin-7-yl)urea]: the 50% inhibitory concentration (IC50) lay in the range of 100 to 1000 nM.
In the case of `COc1cccc(CN2C(=O)[C@@H](C)Oc3cc(NC(=O)NC(C)(C)C)ccc32)c1` [Example 164, (R)-1-(tert-butyl)-3-(4-(3-methoxy-benzyl)-2-methyl-3-oxo-3,4-dihydro-2H-benzo [b][1,4]oxazin-7-yl)urea], the IC50 is 100 to 1000 nM.
For the compound `C[C@H]1Oc2cc(NC(=O)NC(C)(C)C)ccc2N(Cc2csc(C(F)(F)F)n2)C1=O` [Example 165, (R)-1-(tert-butyl)-3-(2-methyl-3-oxo-4-((2-(trifluoro-methyl)thiazol-4-yl)methyl)-3,4-dihydro-2H-benzo [b][1,4]oxazin-7-yl)urea], the IC50 was in the range of 100 to 1000 nM.
